Earlier results, collected in PMC5849076 (Biochemistry, 2018).

Experiments:
DaCld = DaCld (Dechloromonas aromatica, UniProt Q47CX0)
Chain of DaCld (Q47CX0 35-282): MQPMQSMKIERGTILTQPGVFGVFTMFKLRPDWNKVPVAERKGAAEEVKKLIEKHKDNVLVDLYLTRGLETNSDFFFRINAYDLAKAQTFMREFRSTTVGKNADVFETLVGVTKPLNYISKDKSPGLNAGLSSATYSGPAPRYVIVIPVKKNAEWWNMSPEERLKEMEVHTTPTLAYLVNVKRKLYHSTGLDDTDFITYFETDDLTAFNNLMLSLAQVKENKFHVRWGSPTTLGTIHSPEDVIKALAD

## chlorite [ClO2^−]
DaCld
  turnovers prior to irreversible inactivation: > 20,000 equivalents of ClO2^− per heme
KpCld
  number of turnovers: 6700 ± 300 equivalents ClO2^−/heme
